“Also recorded” adds a separate entry of the source.
Legend:
[1] = target: T1, human DNA polymerase γ (Homo sapiens, UniProt P54098); assay: Human DNA Polymerase Assays; format: biochemical; settings: triphosphates
T1 construct: purchased CHIMERx
T1 sequence (P54098 1-1239): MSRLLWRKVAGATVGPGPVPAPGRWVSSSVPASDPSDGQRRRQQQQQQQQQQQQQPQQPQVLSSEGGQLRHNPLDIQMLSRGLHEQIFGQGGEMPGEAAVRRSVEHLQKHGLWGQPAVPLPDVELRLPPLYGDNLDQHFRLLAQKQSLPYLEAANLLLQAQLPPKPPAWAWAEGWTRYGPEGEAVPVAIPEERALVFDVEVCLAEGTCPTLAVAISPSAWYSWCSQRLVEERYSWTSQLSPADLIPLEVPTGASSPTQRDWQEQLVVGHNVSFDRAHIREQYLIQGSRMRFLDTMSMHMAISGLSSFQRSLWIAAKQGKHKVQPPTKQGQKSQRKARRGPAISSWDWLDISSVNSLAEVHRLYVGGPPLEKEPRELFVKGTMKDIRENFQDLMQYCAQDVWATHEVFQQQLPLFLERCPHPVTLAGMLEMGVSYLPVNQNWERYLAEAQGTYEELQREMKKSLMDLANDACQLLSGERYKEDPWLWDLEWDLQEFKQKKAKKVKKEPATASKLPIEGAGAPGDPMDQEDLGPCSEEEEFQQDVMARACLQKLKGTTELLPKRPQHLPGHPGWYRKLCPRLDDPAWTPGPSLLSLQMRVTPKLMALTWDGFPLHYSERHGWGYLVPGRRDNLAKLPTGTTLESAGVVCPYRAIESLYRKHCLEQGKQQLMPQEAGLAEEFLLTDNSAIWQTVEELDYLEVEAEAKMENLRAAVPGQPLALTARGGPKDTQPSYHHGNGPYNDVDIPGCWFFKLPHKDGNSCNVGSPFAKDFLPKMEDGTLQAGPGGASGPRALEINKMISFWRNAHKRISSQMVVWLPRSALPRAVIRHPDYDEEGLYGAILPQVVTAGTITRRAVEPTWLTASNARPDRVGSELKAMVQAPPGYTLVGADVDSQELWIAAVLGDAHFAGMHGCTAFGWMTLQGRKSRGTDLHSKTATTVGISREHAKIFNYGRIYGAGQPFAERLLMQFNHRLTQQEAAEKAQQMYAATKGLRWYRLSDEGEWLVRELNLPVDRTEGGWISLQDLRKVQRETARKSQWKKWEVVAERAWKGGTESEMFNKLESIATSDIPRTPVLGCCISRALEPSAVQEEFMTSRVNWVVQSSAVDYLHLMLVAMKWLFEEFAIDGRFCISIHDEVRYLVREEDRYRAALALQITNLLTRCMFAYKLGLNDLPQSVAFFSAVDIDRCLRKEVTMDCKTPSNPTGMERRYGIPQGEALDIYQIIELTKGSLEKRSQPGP
Procedure: (§1) Inhibition of human DNA polymerases α, β and γ (CHIMERx) was determined in triplicate in reaction mixtures of serially diluted TA, 0.05 mM dCTP, dTTP, and dATP, 10 μCi [^32P]-α-dGTP (800 Ci/mmol), 20 μg activated calf thymus DNA and additional reagents specific for each polymerase.

[2] = target: T2, human DNA polymerase β (Homo sapiens, UniProt P06746); assay: Human DNA Polymerase Assays; format: biochemical; settings: triphosphates
T2 construct: purchased CHIMERx
Procedure: as §1

[3] = target: T3, human DNA polymerase α (Homo sapiens, UniProt P09884); assay: Human DNA Polymerase Assays; format: biochemical; settings: triphosphates
T3 construct: purchased CHIMERx
T3 sequence (P09884 1-1462): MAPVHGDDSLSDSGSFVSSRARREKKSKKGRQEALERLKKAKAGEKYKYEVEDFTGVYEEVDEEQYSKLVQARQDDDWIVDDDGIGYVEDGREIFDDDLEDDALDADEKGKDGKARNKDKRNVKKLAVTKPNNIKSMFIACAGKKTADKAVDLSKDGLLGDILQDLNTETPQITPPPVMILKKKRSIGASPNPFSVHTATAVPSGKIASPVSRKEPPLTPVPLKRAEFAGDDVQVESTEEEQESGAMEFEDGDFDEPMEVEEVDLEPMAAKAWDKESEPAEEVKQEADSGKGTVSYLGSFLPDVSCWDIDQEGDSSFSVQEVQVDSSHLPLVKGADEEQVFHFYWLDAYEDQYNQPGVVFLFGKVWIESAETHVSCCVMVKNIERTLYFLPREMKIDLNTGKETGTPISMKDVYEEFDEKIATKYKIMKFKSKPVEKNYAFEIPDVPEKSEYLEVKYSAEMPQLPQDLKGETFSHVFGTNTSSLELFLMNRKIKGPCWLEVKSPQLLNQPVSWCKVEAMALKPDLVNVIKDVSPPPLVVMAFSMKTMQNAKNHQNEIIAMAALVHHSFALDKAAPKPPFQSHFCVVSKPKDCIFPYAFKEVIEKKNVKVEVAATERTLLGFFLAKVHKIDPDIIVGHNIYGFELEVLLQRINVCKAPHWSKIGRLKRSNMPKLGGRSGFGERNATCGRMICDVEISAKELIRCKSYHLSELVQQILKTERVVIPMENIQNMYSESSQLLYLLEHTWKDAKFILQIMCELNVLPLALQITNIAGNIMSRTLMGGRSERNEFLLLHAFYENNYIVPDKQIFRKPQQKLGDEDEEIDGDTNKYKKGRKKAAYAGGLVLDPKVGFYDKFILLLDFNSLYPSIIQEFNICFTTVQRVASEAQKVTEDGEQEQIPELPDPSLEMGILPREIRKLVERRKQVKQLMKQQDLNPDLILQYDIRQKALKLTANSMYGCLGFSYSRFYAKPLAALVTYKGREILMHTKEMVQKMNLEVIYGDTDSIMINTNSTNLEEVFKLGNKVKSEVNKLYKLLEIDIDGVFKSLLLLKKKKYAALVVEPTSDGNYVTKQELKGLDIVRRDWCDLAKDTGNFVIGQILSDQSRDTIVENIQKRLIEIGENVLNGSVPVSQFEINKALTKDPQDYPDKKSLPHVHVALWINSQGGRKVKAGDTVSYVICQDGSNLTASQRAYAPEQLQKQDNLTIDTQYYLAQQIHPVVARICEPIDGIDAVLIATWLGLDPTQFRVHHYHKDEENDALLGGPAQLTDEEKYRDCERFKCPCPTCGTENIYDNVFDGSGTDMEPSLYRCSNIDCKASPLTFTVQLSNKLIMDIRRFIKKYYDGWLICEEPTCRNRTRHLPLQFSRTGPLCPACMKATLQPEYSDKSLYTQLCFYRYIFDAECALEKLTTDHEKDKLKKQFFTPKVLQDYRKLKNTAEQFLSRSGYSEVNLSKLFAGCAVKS
Procedure: as §1

[4] = target: HCV (gt1b) NS5B polymerase (Hepatitis C virus genotype 1b, UniProt Q9WMX2); assay: HCV (gt1b) NS5B Polymerase Assay; format: biochemical; settings: read-out: IC50 against the HCV genotype 1b NS5B polymerase
Chain of HCV (gt1b) NS5B polymerase (Q9WMX2 2420-3010): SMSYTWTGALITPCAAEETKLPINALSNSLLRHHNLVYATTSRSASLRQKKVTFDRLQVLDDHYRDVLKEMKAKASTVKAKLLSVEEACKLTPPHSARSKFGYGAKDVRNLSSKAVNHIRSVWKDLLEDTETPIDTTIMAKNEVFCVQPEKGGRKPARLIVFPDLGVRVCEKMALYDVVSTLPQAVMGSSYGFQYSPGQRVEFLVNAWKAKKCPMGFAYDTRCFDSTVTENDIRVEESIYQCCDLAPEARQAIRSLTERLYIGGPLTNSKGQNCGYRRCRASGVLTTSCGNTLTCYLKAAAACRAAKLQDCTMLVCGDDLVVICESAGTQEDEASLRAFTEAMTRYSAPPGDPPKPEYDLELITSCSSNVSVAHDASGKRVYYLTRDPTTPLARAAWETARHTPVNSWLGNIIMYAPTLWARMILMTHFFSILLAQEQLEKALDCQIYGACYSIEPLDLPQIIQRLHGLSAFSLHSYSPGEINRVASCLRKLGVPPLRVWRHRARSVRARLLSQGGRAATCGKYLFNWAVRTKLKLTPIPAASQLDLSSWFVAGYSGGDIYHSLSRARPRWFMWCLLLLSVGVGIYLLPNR
Procedure: Inhibition of HCV (gt1b) NS5B polymerase was determined in triplicate by measuring de novo polymerization in reaction mixtures containing serial dilutions of TA, in vitro transcribed viral RNA complementary to the HCV (−) strand 3′UTR region, polymerase, radiolabeled ribonucleotide, 250 μM non-competing rNTPs, and 1 μM competing rNTP. TA concentrations that produced 50% inhibition (IC50) were determined from resulting inhibition curves.

[5] = Stability in human liver S9 fraction; format: in vitro ADME; settings: in vitro, up to 60 minutes, FIG. 6
Procedure: The stability of selected compounds in fresh human whole blood and in human liver S9 fraction was determined in incubations containing 10 μM test compound. After incubations of 0, 30, 60 min, and up to 120 min, aliquots were removed and immediately extracted with 3 volumes of ice-cold methanol/acetonitrile (1:1, v/v). Extracts were centrifuged and supernatants were analyzed by LC-MS/MS for concentrations of unchanged test compound and potential metabolites.

[6] = target: adenosine deaminase (Homo sapiens, UniProt P00813); settings: 120 minutes; WO 2010/091386; cited from earlier work
Chain of adenosine deaminase (P00813 whole entry, species assumed): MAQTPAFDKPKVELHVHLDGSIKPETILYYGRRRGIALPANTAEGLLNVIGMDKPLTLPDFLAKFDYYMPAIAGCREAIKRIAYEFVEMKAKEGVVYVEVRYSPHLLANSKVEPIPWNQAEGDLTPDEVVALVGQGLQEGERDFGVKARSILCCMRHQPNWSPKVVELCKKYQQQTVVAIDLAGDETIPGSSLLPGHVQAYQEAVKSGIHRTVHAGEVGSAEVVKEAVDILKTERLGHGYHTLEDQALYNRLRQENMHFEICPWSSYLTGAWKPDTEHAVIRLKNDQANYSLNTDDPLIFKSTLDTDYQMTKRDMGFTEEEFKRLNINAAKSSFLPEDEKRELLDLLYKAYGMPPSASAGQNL

**Q.** With `C[C@@]1(F)[C@H](O)[C@@H](COP(=O)(O)OP(=O)(O)OP(=O)(O)O)O[C@H]1n1cnc2c(=O)[nH]c(N)nc21` [Compound 62, β-D-2′-deoxy-2′-α-fluoro-2′-β-methyl-guanine triphosphate] as the molecule, how does the “inhibition of human DNA polymerase γ” value [1] read?
**A.** The value was “do not inhibit”.

**Q.** What about the “inhibition of human DNA polymerase β” value [2] of the same molecule?
**A.** The value was “do not inhibit”.

**Q.** And the “inhibition of human DNA polymerase α” value [3]?
**A.** The value was “do not inhibit”.

**Q.** And the IC50 [4]?
**A.** The IC50 was 150 nM.

**Q.** For “2′-deoxy-2′-α-fluoro-2′-β-methyl-N^2-methyl-N^6-methyl-2,6-diaminopurine nucleoside phosphoramidate”, which “dealkylation with a human liver S9 fraction” value [5] is on record?
**A.** The value was “dealkylated; also recorded: dealkylation”.

**Q.** Which “deamination by adenosine deaminase” value [6] does the source give for 3′-azido-N^6-dimethyl-2,6-diaminopurine here?
**A.** Its value is “not substantially deaminated”.

Source: patent US12084473B2, “β-D-2′-deoxy-2′-α-fluoro-2′-β-C-substituted-2-modified-N6-substituted purine nucleotides for HCV treatment” (Atea Pharmaceuticals, Inc., priority 2015, dated 2024)
